For assay [1] the following is noted: without irradiation and chemotherapy; cited from earlier work.
The test system of assay [2] is NADPH oxidase in K562 cells. Nature of the assay: Superoxide generation (Diogenes luminescence) in K562 cells reconstituted with gp91^phox vectors. Format: cell-based. The conditions noted are these: K562 cells stably expressing human p47^phox and p67^phox, transfected 48 h before measurement. As for the experimental part:
FIG. 15. The gp91^phox (T196F) mutant is superactive compared with wild-type. A cellular luminescence enhancement system for superoxide detection (Diogenes, National Diagnostics) was used. Human p47^phox and p67^phox stably expressing K562 cells were transfected with either wild-type human gp91^phox vector, gp91^phox (T196F) vector, or empty vector pcDNA 3.1 48 h before measurement. K562 cells constitutively express p22^phox and Rac. The experiment shown is representative of 3 studies.
In a structure/function study of gp91^phox, a super-active variant of gp91^phox (T196F) was generated in which residue 196 is mutated from threonine to phenylalanine (FIG. 15). PMA-stimulated superoxide generation was 7-fold greater when gp91^phox(T196F), versus wild-type gp91^phox, was used to reconstitute the NADPH oxidase in K562 cells. The mutant construct was made by Quik-Change™ site-directed mutagenesis of gp91^phox using sense primer […] (SEQ ID NO:1) and antisense primer […] (SEQ ID NO:2). The construct was sequenced and subcloned into fresh pcDNA3.1 (−) using NheI and XhoI.

The values below come from patent publication US11738053B2, “Methods and compositions for treating chronic granulomatous disease” (THE BOARD OF REGENTS OF THE UNIVERSITY OF TEXAS SYSTEM, priority 2016, dated 2023).

`c1cc(CN2CCCNCCNCCCNCC2)ccc1CN1CCCNCCNCCCNCC1` [AMD3100]: the “effectiveness as conditioning regimen” value in assay [1] was “not to be sufficiently effective”.

B1: gp91^phox(T196F): super-active variant of gp91^phox in which residue 196 is mutated from threonine to phenylalanine (protein, UniProt P04839 2-570, looked up, variant T196F)
NADPH oxidase 2: GNWAVNEGLSIFVILVWLGLNVFLFVWYYRVYDIPPKFFYTRKLLGSALALARAPAACLNFNCMLILLPVCRNLLSFLRGSSACCSTRVRRQLDRNLTFHKMVAWMIALHSAIHTIAHLFNVEWCVNARVNNSDPYSVALSELGDRQNESYLNFARKRIKNPEGGLYLAVTLLAGITGVVITLCLILIITSSTKFIRRSYFEVFWYTHHLFVIFFIGLAIHGAERIVRGQTAESLAVHNITVCEQKISEWGKIKECPIPQFAGNPPMTWKWIVGPMFLYLCERLVRFWRSQQKVVITKVVTHPFKTIELQMKKKGFKMEVGQYIFVKCPKVSKLEWHPFTLTSAPEEDFFSIHIRIVGDWTEGLFNACGCDKQEFQDAWKLPKIAVDGPFGTASEDVFSYEVVMLVGAGIGVTPFASILKSVWYKYCNNATNLKLKKIYFYWLCRDTHAFEWFADLLQLLESQMQERNNAGFLSYNIYLTGWDESQANHFAVHHDEEKDVITGLKQKTLYGRPNWDNEFKTIASQHPNTRIGVFLCGPEALAETLSKQSISNSESGPRGVHFIFNKENF
For the molecule B1, in assay [2], the “PMA-stimulated superoxide generation relative to wild-type gp91^phox” value amounted to 7 fold.
